Reference: patent publication US20130231472A1, “USE OF MOLECULAR MARKERS FOR THE PRECLINICAL PROFILING OF INHIBITORS OF ENZYMES HAVING HISTONE DEACETYLASE ACTIVITY” (priority 2002, published 2013)
Square brackets hold non-standard residues; d marks the D form. Peptide text beside a SMILES is read from it. * marks the point of attachment. Aoe = N[C@@H](CCCCCC(=O)[C@@H]1CO1)C(=O)O; Sta = CC(C)C[C@H](N)[C@@H](O)CC(=O)O; Isovaleryl = CC(C)CC(=O)*; Nle = CCCC[C@H](N)C(=O)O; Cbz = O=C(OCc1ccccc1)*

Columns and labels:
HDAC-2 [1] = assay: HDAC-2 protein levels in HEK293T cells (Westernblot); format: cell-based, human; conditions: for effect of protease inhibitor on control or VPA-repressed HDAC-2 protein levels: 24 h with or without VPA, FIG. 9A; for effect of proteasome inhibitor on VPA-induced degradation of HDAC-2: co-treatment with VPA, inhibitor added 4 h before harvest, FIG. 9B
Protocol: (§1) FIG. 6: (A) F9 teratocarcinoma or HEK293T embryonic kidney cells were exposed for indicated times to 1 mM VPA. Protein levels of HDAC-2 and HDACs 1 or 3 for reference (HDAC8; N-CoR and Sin3 as data not shown) were determined by Westernblot analysis. […] (C) The effect of other HDAC inhibitors on the amount of HDAC-2 protein was determined by using TSA (100 nM) in a time course analysis in F9 cells (left panel). The HDAC inhibitors TSA (100 nM), trapoxin (TPX, 10 nM), butyrate (1.5 mM) or MS275 (5 μM) were tested at a single time of exposure in HEK293T cells (right panel).
FIG. 9: (A) HEK293T cells were treated for 24 h with VPA or left untreated. The cell penetrating protease inhibitors pepstatin A, leupeptin, or ALLM were added as indicated at the time of VPA addition. (B) Proteasome inhibitors ALLN or MG-132 were added at the indicated concentrations 4 h before cells were harvested. Protein levels of HDAC-2 were determined by Westernblot analysis.

[2] = test system: stage III/IV non-small cell lung cancer; conditions: monotherapy, phase II; cited from earlier work
HDACs = assay: Inhibition of HDACs; format: biochemical
RLIM = RLIM protein levels in HEK293T cells (Westernblot); format: cell-based, human; conditions: 24 hours
Protocol: FIG. 12 (A) RLIM protein levels were determined by Westernblot analysis after treatment of HEK293T cells for 24 hours with the HDAC inhibitors VPA (0.5, 1.5, or 5 mM), TSA (30, 100 or 300 nM) or a combination of VPA (1.5 mM) and TSA (100 nM). Actin protein levels are shown as a control for equal loading. (B) RLIM protein levels were determined by Westernblot analysis after treatment of HEK293T cells for 24 hours with the HDAC inhibitor TSA (100 nM), the proteasome inhibitor ALLN (2.5 μM) or a combination of both. Actin protein levels are shown as a control for equal loading.

HDAC-2 [3] = assay: Ubiquitinated proteins in anti HDAC-2 immune precipitates (Westernblot against ubiquitin); format: cell-based; conditions: VPA 1.5 mM, 24 h; ALLN 5 μM; FIG. 10A
Excerpt: FIG. 10: (A) The total amount of high molecular weight poly-ubiquitinated protein was not altered by VPA treatment of cells (left two lanes). The presence of ubiquitinated proteins in anti HDAC-2 immune precipitates is shown in the right part of the panel. […] Ubiquitinated proteins in the precipitates were detected by Western blot analysis. For lane N a non-immune serum was used instead of the anti HDAC-2 antibody. (B) The presence of mono- and/or oligo-ubiquitinated HDAC-2 upon VPA treatment of HEK293T cells was determined by ectopic expression of His6-tagged ubiquitin followed by VPA-treatment for 36 h as indicated. The proteasome inhibitor MG-132 was added 4 h prior to analysis to enhance the accumulation of ubiquitinated proteins. Electrophoretic mobility and unaltered presence of non-ubiquitinated HDAC-2 were determined by Westernblot analysis of whole cell extracts (left panel). […] Anti-HDAC-2 immuno-reactive bands with the expected mobility of mono- or poly-ubiquitinated HDAC-2 are indicated by a bracket.

PML-RAR leukemia = conditions: one PML-RAR patient with multiple relapses after retinoic acid; cited from earlier work
HDAC-2 [4] = assay: HDAC-2 protein levels in F9 teratocarcinoma cells (Westernblot); format: cell-based, murine
Protocol: as §1

F9 cells = assay: Toxicity in F9 cells (cell loss, actin loading control); format: cell-based, murine; conditions: 48 h TSA (100 nM)
Protocol: as §1

T-cell lymphomas = conditions: phase II; cited from earlier work
TRAIL = TRAIL expression in spleen after in vivo treatment (RNAse protection assay); parameters: species or system mice; conditions: leukemic mice; 96 hours of retinoic acid treatment (21-day-release pellet, 5 mg RA); FIG. 4A
Protocol: Leukemic mice or healthy mice (Ctrl) were then treated with placebo (lanes 1, 3), VPA (400 mg/kg every 12 hours), all-trans retinoic acid (a 21-day-release pellet containing 5 mg RA or placebo: lanes 8-9), and VPA plus retinoic acid (lanes 10-11). Mice were sacrificed 18 hours (lanes 4-5), or 36 hours after beginning of treatment (lanes 3, 6-7, 10-11): total RNAs were collected from the spleens (with a >75% invasion of leukemic blasts as assessed by Giemsa staining) and analyzed by RNAse protection assay to check for expression of TRAIL.

[5] = HEK293T cells, VPA 1 mM, TSA 100 nM, trapoxin 10 nM, butyrate 1.5 mM, MS275 5 μM

HDAC-4, sequence (P56524 whole entry): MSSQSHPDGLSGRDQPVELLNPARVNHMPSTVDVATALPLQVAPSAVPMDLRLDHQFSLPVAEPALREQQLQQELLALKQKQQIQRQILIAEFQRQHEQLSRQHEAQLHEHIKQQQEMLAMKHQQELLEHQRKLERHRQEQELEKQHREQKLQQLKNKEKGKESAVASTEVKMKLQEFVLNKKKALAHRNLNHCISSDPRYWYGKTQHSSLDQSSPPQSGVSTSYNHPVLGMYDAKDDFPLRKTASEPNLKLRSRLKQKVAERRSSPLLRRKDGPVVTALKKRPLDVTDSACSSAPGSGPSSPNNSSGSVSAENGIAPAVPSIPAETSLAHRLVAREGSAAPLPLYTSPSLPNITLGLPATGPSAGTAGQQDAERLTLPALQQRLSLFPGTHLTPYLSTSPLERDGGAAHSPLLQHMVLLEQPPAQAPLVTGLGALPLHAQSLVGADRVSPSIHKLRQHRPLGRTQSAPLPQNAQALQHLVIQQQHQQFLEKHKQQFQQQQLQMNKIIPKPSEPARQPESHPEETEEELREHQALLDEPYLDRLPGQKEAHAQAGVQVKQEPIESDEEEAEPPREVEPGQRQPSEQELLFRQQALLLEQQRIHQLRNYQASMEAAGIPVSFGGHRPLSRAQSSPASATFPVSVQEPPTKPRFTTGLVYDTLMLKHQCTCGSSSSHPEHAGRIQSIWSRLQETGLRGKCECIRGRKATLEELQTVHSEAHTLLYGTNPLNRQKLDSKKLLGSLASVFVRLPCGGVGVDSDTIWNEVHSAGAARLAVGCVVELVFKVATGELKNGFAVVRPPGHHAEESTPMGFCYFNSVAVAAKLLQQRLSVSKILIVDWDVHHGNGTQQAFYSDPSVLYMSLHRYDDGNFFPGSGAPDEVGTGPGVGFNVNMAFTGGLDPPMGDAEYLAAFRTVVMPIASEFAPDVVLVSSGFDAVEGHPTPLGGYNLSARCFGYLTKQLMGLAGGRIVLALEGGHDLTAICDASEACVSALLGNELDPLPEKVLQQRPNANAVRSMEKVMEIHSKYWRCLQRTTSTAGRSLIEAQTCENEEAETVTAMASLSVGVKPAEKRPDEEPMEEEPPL

MS-275
HDAC-2 protein levels (HDAC-2 [1]; [5]): Neither the cyclic tetrapeptide HDAC inhibitor trapoxin nor the anilide-based HDAC inhibitor MS-275 induces reduction of HDAC-2 protein levels

O=C1N[C@@H](Cc2ccccc2)C(=O)N2CCC[C@@H]2C(=O)N[C@@H](CCCCCC(=O)[C@@H]2CO2)C(=O)N[C@H]1Cc1ccccc1 [trapoxin] (cyclo(FF[dP][Aoe]))
HDAC-2 protein levels (HDAC-2 [1]; [5]): Neither the cyclic tetrapeptide HDAC inhibitor trapoxin nor the anilide-based HDAC inhibitor MS-275 induces reduction of HDAC-2 protein levels

CCCC(=O)OCOC(=O)C(C)(C)C [Pivanex]
clinical activity [2]: demonstrating activity in stage III/IV non-small cell lung cancer

CC(C)CC(=O)N[C@H](C(=O)N[C@H](C(=O)N[C@@H](CC(C)C)[C@@H](O)CC(=O)N[C@@H](C)C(=O)N[C@@H](CC(C)C)[C@@H](O)CC(=O)O)C(C)C)C(C)C [pepstatin A] (Isovaleryl-VV[Sta]A[Sta]-OH)
effect of protease inhibitor on control or VPA-repressed HDAC-2 protein levels (HDAC-2 [1]; HEK293T cells): Neither of the protease inhibitors pepstatin A, leupeptin or ALLM had an effect

CCCC(CCC)C(N)=O [valpromide]
HDAC-2 protein levels (HDAC-2 [1]; cell line and concentration not stated): does not affect HDAC-2 protein levels | HDAC inhibition (HDACs): does not inhibit HDACs

CCCC[C@@H](C=O)NC(=O)[C@H](CC(C)C)NC(=O)[C@H](CC(C)C)NC(C)=O [ALLN] (Ac-Leu-Leu-[Nle]-aldehyde)
block of TSA-induced proteosomal degradation of RLIM (RLIM; TSA 100 nM plus ALLN 2.5 μM, FIG. 12B): can be blocked | effect of proteasome inhibitor on VPA-induced degradation of HDAC-2 (HDAC-2 [1]; HEK293T cells): abolished VPA-induces degradation of HDAC-2 completely | amount of ubiquitinated protein precipitated with antibody against HDAC-2 (HDAC-2 [3]): increase the amount of this anti-ubiquitin reactive protein

phenylbutyrate
clinical response of leukemia (PML-RAR leukemia): complete remission of the leukemia

CCCC(=O)O [Butyrate, butyric acid]
HDAC-2 protein levels (HDAC-2 [1]; [5]): Reduction of HDAC-2 protein levels

CC(=O)N[C@@H](CC(C)C)C(=O)N[C@@H](CC(C)C)C(=O)N[C@H](C=O)CCCNC(=N)N [leupeptin]
effect of protease inhibitor on control or VPA-repressed HDAC-2 protein levels (HDAC-2 [1]; HEK293T cells): Neither of the protease inhibitors pepstatin A, leupeptin or ALLM had an effect

CC(/C=C/C(=O)NO)=C\[C@@H](C)C(=O)c1ccc(N(C)C)cc1 [TSA, trichostatin A]
HDAC-2 protein levels (HDAC-2 [4]): does not reduce HDAC-2 levels | toxicity (cell loss, reduction in actin loading control) (F9 cells): toxic | RLIM protein levels / degradation (RLIM; VPA 0.5, 1.5 or 5 mM, TSA 30, 100 or 300 nM, FIG. 12): induce an enhanced proteosomal degradation of the E3 ligase RLIM | HDAC-2 protein levels (HDAC-2 [1]): does not reduce HDAC-2 levels | amount of ubiquitinated protein precipitated with antibody against HDAC-2 (HDAC-2 [3]): no effect

CC(C)C[C@@H](C=O)NC(=O)[C@H](CC(C)C)NC(=O)[C@H](CC(C)C)NC(=O)OCc1ccccc1 [MG-132] (Cbz-Leu-Leu-Leu-aldehyde)
effect of proteasome inhibitor on VPA-induced degradation of HDAC-2 (HDAC-2 [1]; HEK293T cells): abolished VPA-induces degradation of HDAC-2 completely

C/C=C1\NC(=O)[C@H]2CSSCC/C=C/[C@H](CC(=O)N[C@H](C(C)C)C(=O)N2)OC(=O)[C@H](C(C)C)NC1=O [depsipeptide]
clinical outcome (T-cell lymphomas): used successfully

CC1=C(/C=C/C(C)=C/C=C/C(C)=C/C(=O)O)C(C)(C)CCC1 [retinoic acid, all-trans retinoic acid]
TRAIL expression in spleen (TRAIL): as strongly as upon 96 hours of retinoic acid treatment

CSCC[C@@H](C=O)NC(=O)[C@H](CC(C)C)NC(=O)[C@H](CC(C)C)NC(C)=O [ALLM] (Ac-Leu-Leu-Met-aldehyde)
effect of protease inhibitor on control or VPA-repressed HDAC-2 protein levels (HDAC-2 [1]; HEK293T cells): Neither of the protease inhibitors pepstatin A, leupeptin or ALLM had an effect

B1: E3 ubiquitin ligase RLIM (protein)
chain: MENSDSNDKGSGDQSAAQRRSQMDRLDREEAFYQFVNNLSEEDYRLMRDNNLLGTPGESTEEELLRRLQQIKEGPPPQNSDENRGGDSSDDVSNGDSIIDWLNSVRQTGNTTRSGQRGNQSWRAVCRTNPNSGNFRFSLEINVYSNNGSQNSENENEPSARRSSGENVENNSQRQVENPRSESTSARPSRSERNSTEALTEVPPTRGQRRARSRSPDHRRTRARAERSRSPLHPMSEIPRRSHHSISSQTFEHPLVNETEGSSRTRHHVTLRQQISGPELLSRGLFAASGTRNASQGAGSSDTAASGESTGSGQRPPTIVLDLQVRRVRPGEYRQRDSIASRTRSRSQTPNNTVTYESERGGFRRTFSRSERAGVRTYVSTIRIPIRRILNTGLSETTSVAIQTMLRQIMTGFGELSYFMYSDSDSEPTGSVSNRNMERAESRSGRGGSGGGSSSGSSSSSSSSSSSSSSSSSSSSPSSSSGGESSETSSDLFEGSNEGSSSSGSSGARREGRHRAPVTFDESGSLPFLSLAQFFLLNEDDDDQPRGLTKEQIDNLAMRSFGENDALKTCSVCITEYTEGNKLRKLPCSHEYHVHCIDRWLSENSTCPICRRAVLASGNRESVV
in vitro ubiquitination (Ubc8 as E2, RLIM as E3) (HDAC-4): the class II HDAC-4 are substrates for Ubc8/RLIM
